From ChEMBL document CHEMBL3045996, “Use of classical and 3-D QSAR to examine the hydration state of juvenile hormone esterase inhibitors” (Bioorg Med Chem, 2003)

assay: Inhibition of juvenile hormone esterase

SMILES	pIC50
CCCCCC/C=C/C(=O)C(F)(F)F	5.14
O=C(CSCc1ccc(Cl)cc1)C(F)(F)F	5.34
Cc1cccc(CSCC(=O)C(F)(F)F)c1	5.1
CCCCCCCCCCCCc1ccc(CSCC(=O)C(F)(F)F)cc1	5.8
CC(C)(C)c1ccc([S+]([O-])CC(=O)C(F)(F)F)cc1 (configuration not stated)	7.64
CCCCCCCCSC(CCC)C(=O)C(F)(F)F (configuration not stated)	4.09
O=C(CSc1ccc(F)cc1)C(F)(F)F	5.08
O=C(CSc1ccc(Cl)cc1)C(F)(F)F	5.89
O=C(CSc1ccc(O)cc1)C(F)(F)F	5.21
O=C(CSc1ccc(Cl)c(Cl)c1)C(F)(F)F	7.7
Cc1cc(C(C)(C)C)ccc1SCC(=O)C(F)(F)F	8.52
Cc1cc(SCC(=O)C(F)(F)F)ccc1Br	7.89
O=C(CSc1c(Cl)c(Cl)c(Cl)c(Cl)c1Cl)C(F)(F)F	7.8
O=C(CSc1c(F)c(F)c(F)c(F)c1F)C(F)(F)F	4.96
O=C(CSC1CCCCC1)C(F)(F)F	5.28
O=C(CSc1ccccc1)C(F)(F)F	5.06
O=C(CSc1ccccc1Br)C(F)(F)F	6.17
CCc1ccccc1SCC(=O)C(F)(F)F	5.54
CC(C)c1ccccc1SCC(=O)C(F)(F)F	6.47
O=C(CSc1ccccc1CO)C(F)(F)F	5.15
O=C(CSc1ccccc1Oc1ccccc1)C(F)(F)F	6.66
O=C(CSc1ccccc1Nc1ccccc1)C(F)(F)F	7.52
O=C(CSc1cccc(Br)c1)C(F)(F)F	6.06
O=C(CSc1cccc(C(F)(F)F)c1)C(F)(F)F	5.6

SMILES	pIC50
COc1ccc(C(=O)C(F)(F)F)cc1	4.15
CC(C/C=C\c1ccc(C(=O)C(F)(F)F)cc1)CCC1OC1(C)C (configuration not stated)	6.52
CC(CCC1OC1(C)C)CC1OC1c1ccc(C(=O)C(F)(F)F)cc1 (configuration not stated)	3.3
CCCCCC/C=C\C(=O)C(F)(F)F	4.1
CCCCC#CC(=O)C(F)(F)F	5.49
CCCCCCCCC#CC(=O)C(F)(F)F	7.24
CCCCCCCCCCC#CC(=O)C(F)(F)F	7.57
CCCCCSCC(=O)C(F)(F)F	6.11
CC(C)(C)SCC(=O)C(F)(F)F	5.3
CCCCC(C)(C)CC(C)CSCC(=O)C(F)(F)F (configuration not stated)	7.98
CCCCCCCCCSCC(=O)C(F)(F)F	8.43
CCCCCCCC(CCC)SCC(=O)C(F)(F)F (configuration not stated)	7.89
CCCCCCCCCCSCC(=O)C(F)(F)F	7.7
CCCCCCCCCCCCSCC(=O)C(F)(F)F	7.82
CCCCCCCCCCS(=O)(=O)CC(=O)C(F)(F)F	7.36
CCCCCCCCS(=O)(=O)CC(=O)C(F)(F)F	6.9
O=C(c1ccccc1)C(F)(F)F	3.04
CCCCSCC(=O)C(F)(F)F	5.82
O=C(CSCCc1ccccc1)C(F)(F)F	5.49
CCCCCCCCSCC(=O)C(F)(F)F	8.62
CCCCCCCCCCCCCC(=O)C(F)(F)F	5.41
CCCCCCCCCCCCC(=O)C(F)(F)F	7
CCCCCCCC(=O)C(F)(F)F	4.17

Next, values leading:

pIC50	SMILES
5.17	CCCCCCCCC(=O)C(F)(F)F
4.9	Cc1ccccc1CSCC(=O)C(F)(F)F
5.2	Cc1ccc(CSCC(=O)C(F)(F)F)cc1
6.77	O=C(CSCCCc1ccccc1)C(F)(F)F
4.21	O=C(C[S+]([O-])c1ccccc1)C(F)(F)F (configuration not stated)
3.98	O=C(CS(=O)(=O)c1ccccc1)C(F)(F)F
6.31	O=C(CS(=O)(=O)CCc1ccccc1)C(F)(F)F
9.06	CCCCCCCCSC(C)C(=O)C(F)(F)F (configuration not stated)
5.32	CCCCCCCCSC(CC)C(=O)C(F)(F)F (configuration not stated)
4.09	CCCCCCCCSC(C(=O)C(F)(F)F)c1ccccc1 (configuration not stated)
8.07	CCCCCCCC(C)SC(C)C(=O)C(F)(F)F (configuration not stated)
5.89	COc1cccc(SCC(=O)C(F)(F)F)c1
6.39	O=C(CSc1ccc(Br)cc1)C(F)(F)F
6.96	Cc1ccc(SCC(=O)C(F)(F)F)cc1
8.12	CC(C)(C)c1ccc(SCC(=O)C(F)(F)F)cc1
5.89	COc1ccc(SCC(=O)C(F)(F)F)cc1
7.05	CN(C)c1ccc(SCC(=O)C(F)(F)F)cc1
7.64	O=C(CSc1cc(Cl)ccc1Cl)C(F)(F)F
7.11	O=C(CSc1c(Cl)cccc1Cl)C(F)(F)F
6.04	Cc1ccc(SCC(=O)C(F)(F)F)c(C)c1

pIC50	SMILES
6.77	Cc1ccc(C)c(SCC(=O)C(F)(F)F)c1
6.92	Cc1cccc(C)c1SCC(=O)C(F)(F)F
7.96	Cc1ccc(SCC(=O)C(F)(F)F)cc1C
5.74	Cc1cc(C)cc(SCC(=O)C(F)(F)F)c1
7.49	O=C(CSc1cc(Cl)c(Cl)cc1Cl)C(F)(F)F
5.92	O=C(CSc1c(F)c(F)cc(F)c1F)C(F)(F)F
4.82	O=C(CSCc1ccccc1)C(F)(F)F
5.18	O=C(CSCc1ccccc1Cl)C(F)(F)F
8.35	CC(C)=CCCC(C)CCSCC(=O)C(F)(F)F (configuration not stated)
8.12	COC(C)(C)CCCC(C)CCSCC(=O)C(F)(F)F (configuration not stated)
8.51	CC(C)=CCC/C(C)=C\CCSCC(=O)C(F)(F)F
8.49	COC(C)(C)CCC/C(C)=C\CCSCC(=O)C(F)(F)F
5.68	O=C(CSc1ccccc1Cl)C(F)(F)F
5.37	Cc1ccccc1SCC(=O)C(F)(F)F
5.7	COc1ccccc1SCC(=O)C(F)(F)F
6.4	O=C(CSc1cccc(Cl)c1)C(F)(F)F
6.89	Cc1cccc(SCC(=O)C(F)(F)F)c1
6.7	CC(C)=CCCC(C)C/C=C\c1ccc(C(=O)C(F)(F)F)cc1 (configuration not stated)
6.06	CCCCCCCC/C=C/C(=O)C(F)(F)F
8	CCCCCCCCCCCCC#CC(=O)C(F)(F)F

pIC50	SMILES
5.27	O=C(C#Cc1ccccc1)C(F)(F)F
5.8	CCC(C)CSCC(=O)C(F)(F)F (configuration not stated)
5.6	CC(C)CCSCC(=O)C(F)(F)F
8.09	CCCCCCCSCC(=O)C(F)(F)F
9.77	CCCCCCCC(C)SCC(=O)C(F)(F)F (configuration not stated)
8.24	CCCCCCCC(CC)SCC(=O)C(F)(F)F (configuration not stated)
7.37	CCCCCCCCCCCSCC(=O)C(F)(F)F
7.16	CCCCCCCC(CCCC)SCC(=O)C(F)(F)F (configuration not stated)
7.35	CCCCCCCCCCCCCSCC(=O)C(F)(F)F
6.4	CCCCCCCCCCCCCCSCC(=O)C(F)(F)F
6.2	CCCCCCCCCCCCCCCCSCC(=O)C(F)(F)F
6.3	CCCCCCCCCCCCCCCCCCSCC(=O)C(F)(F)F
5.01	O=C(CSC1CCCC1)C(F)(F)F
7.21	CCCCCCCCCCCCS(=O)(=O)CC(=O)C(F)(F)F
7.37	CCCCCCCC[S+]([O-])CC(=O)C(F)(F)F (configuration not stated)
6.4	CCCCCCC#CC(=O)C(F)(F)F
6.66	CCCCCCCCCCC(=O)C(F)(F)F
5.14	CCCCCCCCCCCCCCC(=O)C(F)(F)F
4.85	CCCCCCCCCCCCCCCCCC(=O)C(F)(F)F
3.66	CCCCCCC(=O)C(F)(F)F
